The experiment deals with ear, irritant solution of 1% croton oil. Put plainly: topical anti-inflammatory activity, croton oil rat ear model (Fregnan and Torsello). It counts as in vivo, Rats, Charles River Wistar Strain, female. Particulars: 6 hours. The procedure:
Compounds were tested for anti-inflammatory activity in a topical model based on that described by Fregnan G. B. and Torsello, A. L. (1975), Current Therapeutic Research 17, No. 4, 375-381. In outline the method is as follows:
Rats, Charles River Wistar Strain, female, 10/group. Weight range 200-240 g.
Irritant solution applied consists of 1% croton oil in tetrahydrofuran. 0.05 ml is placed on each ear, compound being included in the irritant solution on one ear. 6 hours later the ears are removed by cutting along the hairline and weighed.
-ve controls--no irritant solution.
+ve controls--irritant solution on both ears.

Where [1] appears, read: Rattus norvegicus, 2 mg/ear, topical, compound in irritant solution, read-out: Treated Ear % inhibition.
[2] abbreviates: Rattus norvegicus, topical, compound in irritant solution, read-out: Treated Ear % inhibition.
The mark [3] stands for this setting: 3.0 mg/ear on the other (treated) ear.

For the compound `COc1ccc(C=C2CCC3=CC(=O)CCC3(C)C2=O)cc1` (stereo not drawn) [Compound 11, 2-(4-Methoxybenzylidene)-3,4,8,8a-tetrahydro-8a-methyl-1,6(2H,7H)-naphthalenedione], the inhibition in vivo at 2 mg/ear under setting [1] is 95%.
The same measure, in the same setting: next, `CC12CCC(=O)C=C1CCC(=Cc1cccs1)C2=O` (stereo not drawn) [Compound 2, 2-(2-Thienylmethylidene)-3,4,8,8a-tetrahydro-8a-methyl-1,6(2H,7H)-naphthalenedione]: 71%.
Consider `CC12CCC(=O)C=C1CCC(=Cc1ccc(C#N)cc1)C2=O` (stereo not drawn) [Compound 6, 4-[(3,4,8,8a-Tetrahydro-8a-methyl-1,6-dioxo(2H,7H)-naphthalen-2-yl)methylidene]benzonitrile], for which, where the note is “2 mg/ear, topical, * p<0.05 vs control (Students t test)”, the “Treated Ear wt.” value was found to be 87.2 mg. In addition, under setting [1], the inhibition in vivo at 2 mg/ear was found to be 53%.
On to `CC12CCC(=O)C=C1CCC(=Cc1cccc(O)c1)C2=O` (stereo not drawn) [Compound 10, 2-(3-Hydroxybenzylidene)3,4,8,8a-tetrahydro-8a-methyl-1,6(2H,7H)-naphthalenedione], for which, under setting [1], the inhibition in vivo at 2 mg/ear came to 98%.
Same read-out and setting: next, `CC12CCC(=O)C=C1CCC(=Cc1ccc3c(c1)OCO3)C2=O` (stereo not drawn) [Compound 9, 2-(3,4-Methylenedioxybenzylidene)-3,4,8,8,a-tetrahydro-8a-methyl-1,6(2H,7H)-naphthalenedione]: 100%; `CC12CCC(=O)C=C1CCC(=Cc1ccc(Cl)cc1)C2=O` (stereo not drawn) [Compound 3, 2-(4-Chlorobenzylidene)-3,4,8,8a-tetrahydro-8a-methyl-1,6-(2H,7H)-naphthalenedione]: 63%.
Still for that read-out and setting: the result for `CC12CCC(=O)C=C1CCC(=Cc1ccc([N+](=O)[O-])cc1)C2=O` (stereo not drawn) [Compound 7, 4-[(3,4,8,8a-Tetrahydro-8a-methyl-1,6-dioxo(2H,7H)-naphthalen-2-yl)methylidene]nitrobenzene] reads 81%; that for `CC12CCC(=O)C=C1CCC(=Cc1ccco1)C2=O` (stereo not drawn) [Compound 4, 2-(2-Furylmethylidene)-3,4,8,8a-tetrahydro-8a-methyl-1,6(2H,7H)-naphthalenedione], 44%.
Regarding `CC12CCC(=O)C=C1CCC(=Cc1ccccc1)C2O` (stereo not drawn) [Compound 14, 6-Benzylidene-4,4a,5,6,7,8-hexahydro-5-hydroxy-4a-methyl-2(3H)-naphthalenon], under setting [2], the inhibition in vivo at 1.5 mg/ear came out at 107%.
Same read-out and setting: next, `CN(C)c1ccc(C=C2CCC3=CC(=O)CCC3(C)C2=O)cc1` (stereo not drawn) [Compound 8, 2-(4-Dimethylaminobenzylidene)-3,4,8,8a-tetrahydro-8a-methyl-1,6(2H,7H)-naphthalenedione]: 99%.
In the case of `CC12CCC(=O)C=C1CCC(=Cc1ccccc1)C2=O` (stereo not drawn) [Compound 1, 2-Benzylidene-3,4,8,8a-tetrahydro-8a-methyl-1,6(2H,7H)-naphthalenedione], under setting [3], the “Non-Treated Ear % inhibition” value was -1% and the “Non-Treated Ear wt.” value is on record as 136.5 ± 5.80 mg. Moreover, under “Rattus norvegicus, 3.0 mg/ear, topical, compound in irritant solution, read-out: Treated Ear % inhibition”, the inhibition in vivo at 3 mg/ear worked out at 70%.
`CC12CCC(=O)C=C1CCC(=Cc1cccc(Cl)c1)C2=O` (stereo not drawn) [Compound 5, 2-(3-Chlorobenzylidene)-3,4,8,8a-tetrahydro-8a-methyl-1,6-(2H,7H)-naphthalenedione]: the inhibition in vivo at 2 mg/ear under setting [1] turned out to be 41%.
